Measured values as given in the NIST ThermoML archive (doi:10.1021/je900478c).

Assay: refractive index (Na D-line) (dimensionless); xn = mol fraction of the nth substance listed
Conditions: 101 kPa, Liquid, Standard Abbe refractometry

CCCCOCCO [2-butoxyethan-1-ol] + O
refractive index
Conditions	x1 = 0.1003	x1 = 0.2	x1 = 0.3	x1 = 0.4	x1 = 0.5	x1 = 0.6	x1 = 0.7	x1 = 0.7999	x1 = 0.9	x1 = 1
283.15 K	1.3785	1.3965	1.4061	1.4118	1.4156	1.41823	1.4199	1.4212	1.4221	1.4226
293.15 K	1.37658	1.39418	1.40355	1.4091	1.4128	1.41532	1.41695	1.41815	1.41905	1.4196
303.15 K	1.374	1.39115	1.40025	1.40562	1.4092	1.4116	1.41315	1.4143	1.4152	1.4157
313.15 K	1.37118	1.3878	1.39655	1.40175	1.4052	1.4075	1.40898	1.41012	1.41095	1.41139
323.15 K	–	1.38385	1.39248	1.3976	1.401	1.4032	1.40465	1.40575	1.4066	1.40701

CCCCOCCOCCO [3,6-dioxa-1-decanol] + O
refractive index
Conditions	x1 = 0.1	x1 = 0.2	x1 = 0.2999	x1 = 0.4	x1 = 0.5	x1 = 0.6	x1 = 0.7	x1 = 0.7998	x1 = 0.8999	x1 = 1
283.15 K	1.3916	1.41105	1.42035	1.42548	1.4286	1.4307	1.4323	1.4334	1.4342	1.4347
293.15 K	1.38935	1.40833	1.4174	1.42235	1.42535	1.42735	1.4289	1.4299	1.4307	1.4312
303.15 K	1.38705	1.4057	1.4146	1.41942	1.4224	1.42428	1.4258	1.42675	1.4275	1.42805
313.15 K	1.3842	1.4022	1.4109	1.41568	1.4185	1.4204	1.42185	1.42273	1.4234	1.424
323.15 K	1.3808	1.3982	1.4067	1.4113	1.41405	1.4159	1.41725	1.41815	1.4188	1.4194
